Measured values from patent US12458630B2, “Combination therapy for cancer” (The Regents of the University of California, priority 2020, dated 2025).
Entries after “also recorded” stand apart in the source; their conditions may differ.

How the values were obtained:
[1] = tested on: 1444 primary human PDAC cells; assay: TMR-DEX macropinosome uptake assay; format: cell-based; conditions: IKKα^Δ 1444 cells, 75 μM EIPA
Method: (§1) Cell imaging. Immunostaining was performed as described^44. Cells were cultured on coverslips and fixed in 4% PFA for 10 min at room temperature. After washing twice in PBS, cells were incubated in PBS containing 10% FBS to block nonspecific sites of antibody adsorption. The cells were then incubated with the appropriate primary antibodies (diluted 1:100) and secondary antibodies (diluted 1:500) in PBS containing 10% FBS with or without 0.1% saponin. For cell macropinosome visualization, 24 hrs after seeding, the cells were serum starved for 18 hrs. Macropinosomes were marked using a high-molecular-mass (70 KD) TMR-Dextran (Invitrogen)-uptake assay, wherein TMR-DEX was added to serum-free medium at a final concentration of 1 mg/ml for 30 min at 37° C. At the end of the incubation period, the cells were rinsed five times in cold PBS and immediately fixed in 4% PFA. For tissue macropinosome visualization^45, fresh pancreata were cut into pieces with an approximate 5-mm cuboidal shape. […]
(§2) Quantification and statistics. To quantify the number of LC3 puncta, a total of 30 cells were recorded and analyzed using the LAS X measurement program on the TCS SPE Leica. Macropinosomes were quantified by using the ‘Analyze Particles’ feature in ImageJ (National Institutes of Health). […]

KC6141 cells = assay: TMR-DEX macropinosome uptake assay; format: cell-based, mouse; conditions: WT and IKKα-KD KC6141 cells
Method: as §1, §2

MIA PaCa-2 cells = assay: LC3 puncta / LC3-LAMP1 immunofluorescence; format: cell-based, human; conditions: MIA PaCa-2 cells +/- MRT68921
Method: as §1, §2

Compound: CCN(c1nc(N)c(C(=O)N=C(N)N)nc1Cl)C(C)C [EIPA, 5-(N-ethyl-N-isopropyl) amiloride]
- macropinocytosis (TMR-DEX labeling) [1]: inhibited; also recorded: suppressed
- MP (macropinosomes) (KC6141 cells): inhibited MP

Compound: CN1CCc2cc(Nc3ncc(C4CC4)c(NCCCNC(=O)C4CCC4)n3)ccc2C1 [MRT68921]
- autophagosome (LC3) puncta per cell (MIA PaCa-2 cells): less autophagosomes; also recorded: reduced autophagosomes; also recorded: significantly abolished
